# Measured values published in ChEMBL document CHEMBL5614401 (Eur J Med Chem, 2024).
# The source made the active and inactive calls. No cut-off for these calls is given here.
# Key:
# [1] = biological target: T1, Solute carrier family 22 member 12 (Homo sapiens, UniProt Q96S37); test: Inhibition of human URAT1 transfected in HEK293 cells by measuring 14C-uric acid uptake preincubated for 30 mins followed by 14--uric acid addition and measured after 15 mins by liquid scintillation counter analysis; type: cell-based
# T1 sequence (Q96S37 whole entry): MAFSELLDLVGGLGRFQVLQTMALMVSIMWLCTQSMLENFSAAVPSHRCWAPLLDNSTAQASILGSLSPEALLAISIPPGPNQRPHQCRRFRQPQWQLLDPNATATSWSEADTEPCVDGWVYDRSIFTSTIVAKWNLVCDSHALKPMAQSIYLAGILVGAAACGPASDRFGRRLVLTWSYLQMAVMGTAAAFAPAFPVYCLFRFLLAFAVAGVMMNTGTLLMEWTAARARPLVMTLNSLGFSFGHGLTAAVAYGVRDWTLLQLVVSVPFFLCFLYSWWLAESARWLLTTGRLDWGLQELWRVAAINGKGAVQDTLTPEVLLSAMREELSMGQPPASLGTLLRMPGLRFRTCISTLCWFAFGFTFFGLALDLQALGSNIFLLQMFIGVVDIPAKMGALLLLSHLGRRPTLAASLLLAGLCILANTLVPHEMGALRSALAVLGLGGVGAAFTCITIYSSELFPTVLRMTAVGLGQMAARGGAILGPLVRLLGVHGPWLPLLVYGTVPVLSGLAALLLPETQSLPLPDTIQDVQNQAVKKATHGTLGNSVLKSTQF
# [2] = biological target: T2, Solute carrier family 2, facilitated glucose transporter member 9 (Homo sapiens) (UniProt Q9NRM0); test: Inhibition of GLUT9 (unknown origin) overexpressed in uric acid-induced HEK293 cells at 25 uM by patch clamp analysis relative to control; type: cell-based
# T2 sequence (whole entry): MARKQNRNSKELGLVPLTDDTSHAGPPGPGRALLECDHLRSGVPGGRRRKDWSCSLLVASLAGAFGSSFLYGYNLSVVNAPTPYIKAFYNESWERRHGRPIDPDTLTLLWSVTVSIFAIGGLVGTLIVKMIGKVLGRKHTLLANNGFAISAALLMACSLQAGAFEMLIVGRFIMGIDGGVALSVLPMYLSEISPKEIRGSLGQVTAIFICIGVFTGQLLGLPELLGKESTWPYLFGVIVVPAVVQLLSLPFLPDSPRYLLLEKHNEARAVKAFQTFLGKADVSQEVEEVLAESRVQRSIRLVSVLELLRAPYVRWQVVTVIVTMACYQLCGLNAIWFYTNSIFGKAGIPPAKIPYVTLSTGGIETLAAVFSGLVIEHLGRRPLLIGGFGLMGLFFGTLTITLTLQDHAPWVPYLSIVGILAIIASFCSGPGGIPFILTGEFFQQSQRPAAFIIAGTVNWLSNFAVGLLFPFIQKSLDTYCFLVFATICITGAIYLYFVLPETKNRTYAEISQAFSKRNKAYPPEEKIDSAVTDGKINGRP
# [3] = test system: Mus musculus; test: (§1) Anti-hyperuricemic activity against potassium oxonate-induced male Kunming mouse model assessed as reduction in serum uric acid level at 10 mg/kg, po via gavage administered 1 hr post-potassium oxonate challenge and measured after 7 days on day 7 potassium oxonate injected after 12 hrs fasting and measured followed by 1.5 hrs of compound administration; type: functional; conditions: time 7 day
# [4] = test system: Mus musculus; test: as §1, with “increase” for “reduction”, “urine” for “serum”, “administration (reference value: 481.6 microM)” for “administration”; type: functional
# [5] = test system: HK-2; test: Cytotoxicity against human HK-2 cells assessed as cell viability at <100 uM incubated for 24 hrs by MTT assay; type: toxicity, cell-based; conditions: hk-2, 24 h
# [6] = test system: HK-2; test: Cytotoxicity against human HK-2 cells assessed as cell viability at 100 uM incubated for 48 hrs by MTT assay; type: toxicity, cell-based; conditions: hk-2, 48 h
# [7] = (§2) Renal toxicity in potassium oxonate-induced male Kunming mouse model assessed as reduction in CR level in serum at 10 mg/kg,po via gavage administered 1 hr post-potassium oxonate challenge and measured after 7 days on day 7 potassium oxonate injected after 12 hrs fasting and measured followed by 1.5 hrs of compound administration by biochemical analyzer; type: organism-based; conditions: in vivo, 168 h, time 7 day
# [8] = as §2, with “BUN” for “CR”; type: organism-based; conditions: in vivo, 168 h, time 7 day
# [9] = as §2, with “effect on kidney damage” for “reduction in CR level in serum”, “administration” for “administration by biochemical analyzer”; type: organism-based; conditions: in vivo, 168 h, time 7 day
# [10] = test system: Mus musculus; test: as §1, with “alleviation of renal tubule dilatation” for “reduction in serum uric acid level”, “administration by H and E staining based analysis” for “administration”; type: functional, organism-based; conditions: time 7.0 day
# [11] = test system: Mus musculus; test: as §1, with “alleviation of casts formation” for “reduction”, “kidney” for “serum uric acid level”, “administration by H and E staining based analysis” for “administration”; type: functional, organism-based; conditions: time 7.0 day
# [12] = test system: Mus musculus; test: as §1, with “alleviation of glomerular ischemia” for “reduction”, “kidney” for “serum uric acid level”, “administration by H and E staining based analysis” for “administration”; type: functional, organism-based; conditions: time 7.0 day
# [13] = test system: Mus musculus; test: as §1, with “alleviation of shrinkage” for “reduction”, “kidney” for “serum uric acid level”, “administration by H and E staining based analysis” for “administration”; type: functional, organism-based; conditions: time 7.0 day
# [14] = Tmax in male Sprague-Dawley rat at 10 mg/kg, po measured after 24 hrs by LC-MS/MS analysis; type: ADME, organism-based; conditions: in vivo
# [15] = Cmax in male Sprague-Dawley rat at 10 mg/kg, po measured after 24 hrs by LC-MS/MS analysis; type: ADME, organism-based; conditions: in vivo
# [16] = Half life in male Sprague-Dawley rat at 10 mg/kg, po measured after 24 hrs by LC-MS/MS analysis; type: ADME, organism-based; conditions: in vivo
# [17] = AUC (0 to infinity) in male Sprague-Dawley rat at 10 mg/kg, po measured after 24 hrs by LC-MS/MS analysis; type: ADME, organism-based; conditions: in vivo
# [18] = MRT (0 to infinity) in male Sprague-Dawley rat at 10 mg/kg, po measured after 24 hrs by LC-MS/MS analysis; type: ADME, organism-based; conditions: in vivo
# [19] = biological target: T1, Solute carrier family 22 member 12; test: Inhibition of human URAT1 transfected in HEK293 cells by measuring 14C-uric acid uptake at 5 uM preincubated for 30 mins followed by 14--uric acid addition and measured after 15 mins by liquid scintillation counter analysis relative to control; type: cell-based; conditions: 0.25 h, time 45 min
# [20] = biological target: T3, Solute carrier family 2, facilitated glucose transporter member 9 (Homo sapiens, UniProt Q9NRM0); test: Inhibition of GLUT9 (unknown origin) overexpressed in uric acid-induced HEK293 cells by patch clamp analysis; type: cell-based
# T3 sequence (Q9NRM0 whole entry): T2 sequence (whole entry)
# [21] = biological target: T1, Solute carrier family 22 member 12; test: Inhibition of URAT1 (unknown origin)
structure (smiles),measurement,setting,value
C/C(=C\Cc1c(O)ccc2c1OC(c1ccc(Cl)cc1)CC2=O)C(=O)O (stereo unspecified),IC50,[1],2860 nM
C/C(=C\Cc1cccc2c1OC(c1cccs1)CC2=O)C(=O)O (stereo unspecified),IC50,[1],860 nM
same,inhibition,[2],22.7%
same,Activity,[3],317.1 µM
same,Activity,[4]; time 7 day,648.21 µM
same,Activity,[5],Toxic
same,Activity,[6],Non-Toxic
same,Activity,[7],Non-Toxic
same,Activity,[8],Non-Toxic
same,Activity,[9],Non-Toxic
same,Activity,[10],Active
same,Activity,[11],Active
same,Activity,[12],Active
same,Activity,[13],Active
same,Tmax,[14],0.83 h
same,Cmax,[15],2090 ng/mL
same,half-life,[16],5.14 h
same,AUC(0-inf),[17],14700 ng·h/mL
same,MRT inf,[18],11.4 h
C/C(=C\Cc1c(O)ccc2c1OC(c1csc3ccccc13)CC2=O)C(=O)O (stereo unspecified),IC50,[1],230 nM
same,inhibition,[2],8.33%
same,Activity,[3],392.02 µM
same,Activity,[4]; time 7 day,599.6 µM
same,Activity,[5],Toxic
same,Activity,[6],Non-Toxic
same,Activity,[7],Non-Toxic
same,Activity,[8],Non-Toxic
same,Activity,[9],Non-Toxic
same,Activity,[10],Active
same,Activity,[11],Active
same,Activity,[12],Active
same,Activity,[13],Active
CC(C)=CCc1c(O)ccc2c1OC(c1ccsc1)CC2=O (stereo unspecified),inhibition at 5 µM,[19],72.3%
O=C(O)CSc1nnc(Br)n1-c1ccc(C2CC2)c2ccccc12,Activity,[3],380.14 µM
same,Activity,[4]; time 7 day,696.8 µM
same,Activity,[7],Non-Toxic
same,Activity,[8],Non-Toxic
same,Activity,[9],Non-Toxic
same,Activity,[10],inactive
same,Activity,[11],inactive
same,Activity,[12],inactive
same,Activity,[13],inactive
O=C(O)CCCc1c(O)ccc2c1OC(c1cccs1)CC2=O (stereo unspecified),IC50,[1],2410 nM
Cc1ccc2c(c1C/C=C/S(=O)(=O)c1ccccc1)OC(c1ccsc1)CC2=O (stereo unspecified),IC50,[1],4430 nM
O=C(O)/C=C/Cc1cccc2c1OC(c1ccc(Br)c3ccccc13)CC2=O (stereo unspecified),IC50,[1],730 nM
CC(C)=CCc1c(O)ccc2c1OC(c1ccc(Cl)cc1)CC2=O (stereo unspecified),inhibition at 5 µM,[19],11.3%
C/C(=C\Cc1c(O)ccc2c1OC(c1ccsc1)CC2=O)C(=O)O (stereo unspecified),IC50,[1],650 nM
CC(C)=CCc1c(O)ccc2c1OC(c1ccc(O)cc1)CC2=O (stereo unspecified),inhibition at 5 µM,[19],93.3%
same,IC50,[1],240 nM
same,inhibition,[2],95.5%
same,IC50,[20],1840 nM
same,Tmax,[14],1.12 h
same,Cmax,[15],1110 ng/mL
same,half-life,[16],6.01 h
same,AUC(0-inf),[17],7460 ng·h/mL
same,MRT inf,[18],9.16 h
same,IC50,[21],220 nM
C/C(=C\Cc1c(O)ccc2c1OC(c1ccc(Br)c3ccccc13)CC2=O)C(=O)O (stereo unspecified),IC50,[1],190 nM
same,inhibition,[2],8.21%
same,Activity,[3],397.87 µM
same,Activity,[4]; time 7.0 day,Active
same,Activity,[5],Toxic
same,Activity,[6],Non-Toxic
same,Activity,[7],Non-Toxic
same,Activity,[8],Non-Toxic
same,Activity,[9],Non-Toxic
same,Activity,[10],Active
same,Activity,[11],Active
same,Activity,[12],Active
same,Activity,[13],Active
same,Tmax,[14],1.5 h
same,Cmax,[15],1380 ng/mL
same,half-life,[16],4.66 h
same,AUC(0-inf),[17],8270 ng·h/mL
same,MRT inf,[18],7.54 h
CC(C)=CCc1c(O)ccc2c1OC(c1csc3ccccc13)CC2=O (stereo unspecified),inhibition at 5 µM,[19],32%
C/C(=C\Cc1cccc2c1OC(c1csc3ccccc13)CC2=O)C(=O)O (stereo unspecified),IC50,[1],950 nM
CC(C)(Sc1ccncc1Cc1ccc(C#N)c2ccccc12)C(=O)O,IC50,[21],2080 nM
O=C(c1cc(Cl)c(O)c(Cl)c1)N1CS(=O)(=O)c2ccccc21 [DOTINURAD],IC50,[21],40 nM
O=C(O)/C=C/Cc1cccc2c1OC(c1ccsc1)CC2=O (stereo unspecified),IC50,[1],3590 nM
CC(C)=CCc1c(O)ccc2c1OC(c1cccc(F)c1)CC2=O (stereo unspecified),inhibition at 5 µM,[19],22.7%
